Columns and labels:
blood glucose = test: Blood-glucose depression assay modified from the U.S. Pharmacopeia; type: in vivo; conditions: 60 minutes after injection; for Blood glucose depression: 0.1 mg protein/100 gm body weight subcutaneous after overnight fast
Description: weight by subcutaneous injection.
injection using a Beckman Glucose Analyzer 2.

Concanavalin A = Concanavalin A (Canavalia ensiformis, UniProt P02866); test: Binding to and glucose displacement from immobilized Concanavalin A columns; design: species or system Jack Bean
Protocol: At the point indicated by the arrow, 0.2M glucose in the column buffer was begun. Fractions (2.0 ml) were collected at a flow rate of 10-15 ml/h.
Displacement of hormone was accomplished using 1.0 ml pulses of column buffer containing varying amounts of glucose. Glucose content is indicated over the appropriate arrows. Fractions (1.7 ml) were collected at a flow rate of 10-15 ml/h.

## Control insulin: porcine insulin (Lilly), unmodified
Blood glucose; Animal A
  Blood glucose depression: 75 mg %
Blood glucose; Animal B
  Blood glucose depression: 70 mg %
Blood glucose; Animal C
  Blood glucose depression: 79 mg %
Blood glucose; Animal D
  Blood glucose depression: 79 mg %
Blood glucose; Animal E
  Blood glucose depression: 64 mg %
Blood glucose; Animal F
  Blood glucose depression: 73 mg %
Blood glucose; Mean of animals A-F, 0.1 mg protein/100 gm body weight subcutaneous
  Blood glucose depression, Mean ± S.E.M.: 73.33 ± 2.35 mg %
Concanavalin A; 20 mg applied to column, buffer 1 mM MgCl2, 1 mM CaCl2, 50 mM NaCl, 25 mM sodium phosphate, pH 7.4
  Binding to immobilized Concanavalin A: did not bind
Concanavalin A; 0.2M glucose in column buffer, 1,000:1 molar excess of glucose
  Displacement from Concanavalin A binding sites by glucose: none was eluted by the addition of glucose
